pIC50: −log10 of the molar value.

This experiment relates to IL-1β production in PMA-differentiated THP-1 cells. Briefly: IL-1β production in PMA-differentiated THP-1 cells stimulated with gramicidin (hTHP-1 assay containing 2% fetal bovine serum; Procedures 1-3). It is filed as cell-based, human. Particulars: Homo sapiens, THP-1, hTHP-1 assay containing 2% fetal bovine serum; class symbols; read-out: hTHP-1 IC50 (Average IC50 of compounds in hTHP-1 assay). A digest of the protocol:
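THP-1 cells differentiated with PMA (20 ng/ml, 16-18 h), replated in 2% FBS RPMI (50,000 cells/well), preincubated 1 h with compound (top final 100 μM, 3-fold steps, 0.37% DMSO), then stimulated 2 h with gramicidin (5 μM). Supernatant IL-1β measured by HTRF.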
For the compound `CC(C)c1cc(-c2ccc(Cl)c(Cl)c2)cc(C(C)C)c1CC(=O)N=S(N)(=O)c1cnc(C(C)(C)O)s1` (stereo not shown) [Example 112, N-(amino(2-(2-hydroxypropan-2-yl)thiazol-5-yl)(oxo)-λ^6-sulfaneylidene)-2-(3′,4′-dichloro-3,5-diisopropyl-[1,1′-biphenyl]-4-yl)acetamide], the negative logarithm of the IC50 (pIC50) (as a rule, the negative decadic logarithm of the IC50, by convention in mol/L) is 6.00 to 6.70. In the case of `CC(C)c1cc(-c2ccc3ccccc3c2)cc(C(C)C)c1CC(=O)N=S(N)(=O)c1cnc(C(C)(C)O)s1` (stereo not shown) [Example 113, N-(amino(2-(2-hydroxypropan-2-yl)thiazol-5-yl)(oxo)-λ^6-sulfaneylidene)-2-(2,6-diisopropyl-4-(naphthalen-2-yl)phenyl)acetamide] it was 7.40 to 8.10; in that of `CC(C)c1ccc(C#N)c(C(C)C)c1CC(=O)N=S(N)(=O)c1cnc(C(C)(C)O)s1` (stereo not shown) [Example 114, N-(amino(2-(2-hydroxypropan-2-yl)thiazol-5-yl)(oxo)-λ^6-sulfaneylidene)-2-(3-cyano-2,6-diisopropylphenyl)acetamide], 5.30 to 6.00.

For `CC(C)c1c(F)c(C#N)cc(C2CC2)c1CC(=O)N=S(N)(=O)c1sc(C(C)(C)O)nc1CO` (stereo not shown) [Example 115, N-(amino(4-(hydroxymethyl)-2-(2-hydroxypropan-2-yl)thiazol-5-yl)(oxo)-λ^6-sulfaneylidene)-2-(4-cyano-6-cyclopropyl-3-fluoro-2-isopropylphenyl)acetamide], the pIC50 is 6.00 to 6.70. In the case of `COc1ccc2cc(-c3cc(C(C)C)c(CC(=O)N=S(N)(=O)c4cnc(C(C)(C)O)s4)c(C(C)C)c3)ccc2c1` (stereo not shown) [Example 116, N-(amino(2-(2-hydroxypropan-2-yl)thiazol-5-yl)(oxo)-λ^6-sulfaneylidene)-2-(2,6-diisopropyl-4-(6-methoxynaphthalen-2-yl)phenyl)acetamide] it was 4.52 to 5.30. In the case of `CC(C)c1cc(-c2ccc3c(c2)OC(F)(F)O3)cc(C(C)C)c1CC(=O)N=S(N)(=O)c1ncc(C(C)(C)O)s1` (stereo not shown) [Example 117, N-(amino(5-(2-hydroxypropan-2-yl)thiazol-2-yl)(oxo)-λ^6-sulfaneylidene)-2-(4-(2,2-difluorobenzo[d][1,3]dioxol-5-yl)-2,6-diisopropylphenyl)acetamide] it was 6.70 to 7.40; in that of `CC(C)c1cc(-c2ccc3c(c2)OC(F)(F)O3)cc(C(C)C)c1CC(=O)N=S(N)(=O)c1cnc(C(C)(C)O)s1` (stereo not shown) [Example 118, N-(amino(2-(2-hydroxypropan-2-yl)thiazol-5-yl)(oxo)-λ^6-sulfaneylidene)-2-(4-(2,2-difluorobenzo[d][1,3]dioxol-5-yl)-2,6-diisopropylphenyl)acetamide], 6.00 to 6.70; in that of `CC(C)c1ccc(F)c(C(C)C)c1CC(=O)N=S(N)(=O)c1nc(C(C)(C)O)cs1` (stereo not shown) [Example 119, N-(amino(4-(2-hydroxypropan-2-yl)thiazol-2-yl)(oxo)-λ^6-sulfaneylidene)-2-(3-fluoro-2,6-diisopropylphenyl)acetamide], 6.00 to 6.70. In the case of `CC(C)c1ccc(C#N)c(C(C)C)c1CC(=O)N=S(N)(=O)c1nc(C(C)(C)O)cs1` (stereo not shown) [Example 120, N-(amino(4-(2-hydroxypropan-2-yl)thiazol-2-yl)(oxo)-λ^6-sulfaneylidene)-2-(3-cyano-2,6-diisopropylphenyl)acetamide] it was 6.00 to 6.70; in that of `Cc1ccc(-c2cc(C(C)C)c(CC(=O)N=S(N)(=O)c3ncc(C(C)(C)O)s3)c(C(C)C)c2)cc1C` (stereo not shown) [Example 121, N-(amino(5-(2-hydroxypropan-2-yl)thiazol-2-yl)(oxo)-λ^6-sulfaneylidene)-2-(3,5-diisopropyl-3′,4′-dimethyl-[1,1′-biphenyl]-4-yl)acetamide], 6.00 to 6.70. Regarding `CC(C)c1cc(-c2ccc(Cl)c(Cl)c2)cc(C(C)C)c1CC(=O)N=S(N)(=O)c1ncc(C(C)(C)O)s1` (stereo not shown) [Example 122, N-(amino(5-(2-hydroxypropan-2-yl)thiazol-2-yl)(oxo)-λ^6-sulfaneylidene)-2-(3′,4′-dichloro-3,5-diisopropyl-[1,1′-biphenyl]-4-yl)acetamide], the pIC50 was 6.00 to 6.70. Regarding `CC(C)c1cc(C#N)c(F)c(C(C)C)c1CC(=O)N=S(N)(=O)c1cnc(C(C)(C)O)s1` (stereo not shown) [Example 123, N-(amino(2-(2-hydroxypropan-2-yl)thiazol-5-yl)(oxo)-λ^6-sulfaneylidene)-2-(4-cyano-3-fluoro-2,6-diisopropylphenyl)acetamide], the pIC50 was 6.00 to 6.70. In the case of `CC(C)c1cc(F)c(F)c(C(C)C)c1CC(=O)N=S(N)(=O)c1nc(C(C)(C)O)cs1` (stereo not shown) [Example 124, N-(amino(4-(2-hydroxypropan-2-yl)thiazol-2-yl)(oxo)-λ^6-sulfaneylidene)-2-(3,4-difluoro-2,6-diisopropylphenyl)acetamide] it was 6.00 to 6.70; in that of `CC(C)c1ccc(F)c(C(C)C)c1CC(=O)N=S(N)(=O)c1ccc(C(C)(C)O)s1` (stereo not shown) [Example 125, N-(amino(5-(2-hydroxypropan-2-yl)thiophen-2-yl)(oxo)-λ^6-sulfaneylidene)-2-(3-fluoro-2,6-diisopropylphenyl)acetamide], 6.00 to 6.70; in that of `COc1ccc2cc(-c3cc(C(C)C)c(CC(=O)N=S(N)(=O)c4ncc(C(C)(C)O)s4)c(C(C)C)c3)ccc2c1` (stereo not shown) [Example 126, N-(amino(5-(2-hydroxypropan-2-yl)thiazol-2-yl)(oxo)-λ^6-sulfaneylidene)-2-(2,6-diisopropyl-4-(6-methoxynaphthalen-2-yl)phenyl)acetamide], 6.00 to 6.70. In the case of `CC(C)c1cc(F)cc(C(C)C)c1CC(=O)N=S(N)(=O)c1ncc(C(C)(C)C(=O)O)s1` (stereo not shown) [Example 127, 2-(2-(N′-(2-(4-fluoro-2,6-diisopropylphenyl)acetyl)sulfamidimidoyl)thiazol-5-yl)-2-methylpropanoic acid] it was 4.52 to 5.30. In the case of `CC(C)c1c(F)c(C#N)cc(C2CC2)c1CC(=O)N=S(N)(=O)c1ccc(CN(C)C)cc1F` (stereo not shown) [Example 128, N-(amino(4-((dimethylamino)methyl)-2-fluorophenyl)(oxo)-λ^6-sulfaneylidene)-2-(4-cyano-6-cyclopropyl-3-fluoro-2-isopropylphenyl)acetamide], the pIC50 is 6.00 to 6.70. In the case of `Cc1sc(S(N)(=O)=NC(=O)Cc2c(C(C)C)ccc(F)c2C(C)C)cc1C(C)(C)O` (stereo not shown) [Example 129, N-(amino(4-(2-hydroxypropan-2-yl)-5-methylthiophen-2-yl)(oxo)-λ^6-sulfaneylidene)-2-(3-fluoro-2,6-diisopropylphenyl)acetamide] it was 6.70 to 7.40. For `CC(C)c1ccc(F)c(C(C)C)c1CC(=O)N=S(N)(=O)c1ncc(C(C)(C)O)s1` (stereo not shown) [Example 130, N-(amino(5-(2-hydroxypropan-2-yl)thiazol-2-yl)(oxo)-λ^6-sulfaneylidene)-2-(3-fluoro-2,6-diisopropylphenyl)acetamide], the pIC50 is 5.30 to 6.00.

As to `CC(C)c1cc2c(c(C(C)C)c1CC(=O)N=S(N)(=O)c1cnc(C(C)(C)O)s1)COC2` (stereo not shown) [Example 132, N-(amino(2-(2-hydroxypropan-2-yl)thiazol-5-yl)(oxo)-λ^6-sulfaneylidene)-2-(4,6-diisopropyl-1,3-dihydroisobenzofuran-5-yl)acetamide], the pIC50 was 5.30 to 6.00. In the case of `CC(C)c1cc(C#N)c(F)c(C(C)C)c1CC(=O)N=S(N)(=O)c1nc(C(C)(C)O)cs1` (stereo not shown) [Example 133, N-(amino(4-(2-hydroxypropan-2-yl)thiazol-2-yl)(oxo)-λ^6-sulfaneylidene)-2-(4-cyano-3-fluoro-2,6-diisopropylphenyl)acetamide] it was 6.00 to 6.70; in that of `CC(C)c1cc2c(c(C(C)C)c1CC(=O)N=S(N)(=O)c1ccc(CN(C)C)cc1)COC2` (stereo not shown) [Example 134], 5.30 to 6.00. In the case of `CC(C)c1ccc2c(c1CC(=O)N=S(N)(=O)c1cnc(C(C)(C)O)s1)CCC2` (stereo not shown) [Example 135, N-(amino(2-(2-hydroxypropan-2-yl)thiazol-5-yl)(oxo)-λ^6-sulfaneylidene)-2-(5-isopropyl-2,3-dihydro-1H-inden-4-yl)acetamide] it was 5.30 to 6.00; in that of `CC(C)c1cc(-c2ccc3ccccc3c2)cc(C(C)C)c1CC(=O)N=S(N)(=O)c1ccc(CN(C)C)cc1` (stereo not shown) [Example 136, N-(amino(4-((dimethylamino)methyl)phenyl)(oxo)-λ^6-sulfaneylidene)-2-(2,6-diisopropyl-4-(naphthalen-2-yl)phenyl)acetamide], 6.00 to 6.70. In the case of `CC(C)c1cc(-c2ccc3c(c2)CCOC3)cc(C(C)C)c1CC(=O)N=S(N)(=O)c1sc(C(C)(C)O)nc1CO` (stereo not shown) [Example 137, N-(amino(4-(hydroxymethyl)-2-(2-hydroxypropan-2-yl)thiazol-5-yl)(oxo)-λ^6-sulfaneylidene)-2-(4-(isochroman-6-yl)-2,6-diisopropylphenyl)acetamide] it was 6.00 to 6.70. For the compound `CC(C)c1cc(-c2ccc3c(c2)CCOC3)cc(C(C)C)c1CC(=O)N=S(=O)(NC(=O)OC(C)(C)C)c1cnc(C(C)(C)O)s1` (stereo not shown) [Example 138, tert-butyl (2-(2-hydroxypropan-2-yl)-N-(2-(4-(isochroman-6-yl)-2,6-diisopropylphenyl)acetyl)thiazole-5-sulfonimidoyl)carbamate], the pIC50 was 5.30 to 6.00. As for `CC(C)c1cc(-c2ccc3c(c2)CCOC3)cc(C(C)C)c1CC(=O)N=S(N)(=O)c1cnc(C(C)(C)O)s1` (stereo not shown) [Example 139, N-(amino(2-(2-hydroxypropan-2-yl)thiazol-5-yl)(oxo)-λ^6-sulfaneylidene)-2-(4-(isochroman-6-yl)-2,6-diisopropylphenyl)acetamide], the pIC50 is 6.00 to 6.70. On to `CC(C)c1cc(COC2CCCC2)cc(C(C)C)c1CC(=O)N=S(=O)(NC(=O)OC(C)(C)C)c1cnc(C(C)(C)O)s1` (stereo not shown) [Example 140, tert-butyl (N-(2-(4-((cyclopentyloxy)methyl)-2,6-diisopropylphenyl)acetyl)-2-(2-hydroxypropan-2-yl)thiazole-5-sulfonimidoyl)carbamate], for which the pIC50 was 6.00 to 6.70.

For the origin of these results see patent US11370763B2, “Compounds and compositions for treating conditions associated with NLRP activity” (Novartis AG, priority 2017, dated 2022).
